Assay results taken from patent publication EP1025097B1, “1-(2-NAPHTHYL) AND 1-(2-AZANAPHTHYL)-4-(1-PHENYLMETHYL)PIPERAZINES BEING DOPAMINE D 4? RECEPTOR SUBTYPE LIGANDS” (NEUROGEN CORPORATION, priority 1997, dated 1999).

Target: T1, D2 receptors (Chlorocebus aethiops, UniProt P52702)
T1 construct: expressed in transfected cells; host or cells: COS cells
Assay: Assay for D2 receptor binding activity (3H-YM 09151-2 displacement, COS cell pellets)
Parameters: species or system African Green monkey
Settings: recombinant receptor in COS cells; 0.5 nM 3H-YM 09151-2
Protocol: Pellets of COS cells containing recombinantly produced D2 or D4 receptors from African Green monkey are used for the assays. The sample is homogenized in 100 volumes (w/vol) of 0.05 M Tris HCl buffer at 4° C and pH 7.4. The sample is then centrifuged at 30,000 x g and resuspended and rehomogenized. The sample is again centrifuged as described above and the final tissue sample is frozen until use. The tissue is resuspended 1:20 (wt/vol) in 0.05 M Tris HCl buffer containing 100 mM NaCl.
Incubations are carried out at […] and contain 0.4 ml of tissue sample, 0.5 nM ^3H-YM 09151-2 (Nemonapride, cis-5-Chloro-2-methoxy-4-(methylamino)-N-(2-methyl-2-(phenylmethyl)-3-pyrrolidinyl)benzamide)and the compound of interest in a total incubation of 1.0 ml. Nonspecific binding is defined as that binding found in the presence of […] spiperone; without further additions, nonspecific binding is less than 20% of total binding. Binding characteristics for examples of compounds encompassed within Formulae II, III and V for the D2 and D4 receptor subtypes are shown in Table 2 for […].

T1 sequence (P52702 whole entry): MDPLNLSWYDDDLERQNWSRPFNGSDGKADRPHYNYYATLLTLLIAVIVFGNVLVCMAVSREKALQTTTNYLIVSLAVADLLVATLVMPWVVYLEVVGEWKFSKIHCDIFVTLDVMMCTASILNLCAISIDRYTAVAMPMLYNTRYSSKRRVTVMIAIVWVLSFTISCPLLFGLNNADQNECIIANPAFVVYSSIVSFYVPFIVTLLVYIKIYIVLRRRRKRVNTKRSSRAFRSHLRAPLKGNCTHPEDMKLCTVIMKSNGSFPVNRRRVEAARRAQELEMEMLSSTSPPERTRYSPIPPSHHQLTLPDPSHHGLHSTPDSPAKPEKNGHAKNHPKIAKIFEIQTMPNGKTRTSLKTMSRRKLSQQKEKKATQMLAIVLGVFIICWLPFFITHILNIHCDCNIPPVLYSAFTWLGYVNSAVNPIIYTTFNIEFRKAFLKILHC

Ki, > 4 µM:
Clc1ccc(CN2CCN(c3ccc4ccccc4c3)CC2)cc1 [Compound 6]
Clc1ccc(CN2CCN(c3cnc4ccccc4n3)CC2)cc1 [Compound 3]
Cc1ccc(CN2CCN(c3ccc4ccccc4n3)CC2)cc1 [Compound 2]
